Legend:
[1] = tested on: CAMP; test: CAMP gene expression in hMDM1 by qRT-PCR after vitamin D derivatives; assay type: cell-based, human; conditions: hMDM1, 100 nM, after 6 days (late), qRT-PCR normalized to GAPDH and to untreated control = 1, mean ± SD, n = 1-5
Protocol: Human peripheral mononuclear cells (PBMCs) were isolated from buffy coats (DRK-Blutspendedienst Hessen GmbH) by passage over a Leukocyte Separation Medium gradient as described previously ([30]). Monocytes, obtained by plastic adherence or CD14 selection were incubated either with 10 ng/ml rhGM-CSF (Leukine® Sanofi-Aventis, Bridgewater, US) or 30 ng/ml rhM-CSF (R&D Systems, Abingdon, UK) for a period of 5 to 7 d at 37°C, 5% CO2 to generate hMDM1 or hMDM2, respectively. Cells were generated in 6 w plates or in 25 cm^2 culture flasks and were detached by cooling cells down on ice, following detachment with a cell scraper. […]
The cells were co-incubated with stationary phase Lm or Lae promastigotes or axenic amastigotes at a MOI ratio of 1:10 in RPMI 1640 supplemented with 10% heat inactivated fetal calf serum, 50 μM β-mercaptoethanol (all from Sigma Aldrich), 2 mM L-glutamine, 100 U/ml penicillin and 100 μg/ml streptomycin, 10 mM HEPES (all from Biochrom) for 3 h at 37°C in a humidified atmosphere in a CO2 incubator. […] The LmdsRed promastigotes increase their fluorescence intensity when transforming into amastigotes, which enables the quantification of the parasite propagation by measuring the dsRed mean fluorescence intensity using FACS ([62], [63]). […]

[2] = tested on: cathelicidin; test: Cathelicidin protein expression in hMDM1 by western blot densitometry; assay type: cell-based, human; conditions: hMDM1, 100 nM, western blot densitometry normalized to ß-actin and untreated control = 1, mean ± SD, n = 5-7
Protocol: Human peripheral mononuclear cells (PBMCs) were isolated from buffy coats (DRK-Blutspendedienst Hessen GmbH) by passage over a Leukocyte Separation Medium gradient as described previously ([30]). Monocytes, obtained by plastic adherence or CD14 selection were incubated either with 10 ng/ml rhGM-CSF (Leukine® Sanofi-Aventis, Bridgewater, US) or 30 ng/ml rhM-CSF (R&D Systems, Abingdon, UK) for a period of 5 to 7 d at 37°C, 5% CO2 to generate hMDM1 or hMDM2, respectively. Cells were generated in 6 w plates or in 25 cm^2 culture flasks and were detached by cooling cells down on ice, following detachment with a cell scraper. Experimental data, conducted with monocytes obtained from human donors, are depicted as dot plots, in which each dot presents data from a single donor.
(§1) The cells were co-incubated with stationary phase Lm or Lae promastigotes or axenic amastigotes at a MOI ratio of 1:10 in RPMI 1640 supplemented with 10% heat inactivated fetal calf serum, 50 μM β-mercaptoethanol (all from Sigma Aldrich), 2 mM L-glutamine, 100 U/ml penicillin and 100 μg/ml streptomycin, 10 mM HEPES (all from Biochrom) for 3 h at 37°C in a humidified atmosphere in a CO2 incubator. Extracellular parasites were removed by centrifugation and washing the cells. During infection experiments, cathelicidin expression was induced by incubation of hMDM with 100 nM calcitriol or calcipotriol for 24 h. […] The LmdsRed promastigotes increase their fluorescence intensity when transforming into amastigotes, which enables the quantification of the parasite propagation by measuring the dsRed mean fluorescence intensity using FACS ([62], [63]).
A total number of 0.5 × 10^6 hMDM were lysed in Lämmli-Buffer (A. bidest supplemented with 0.7 M Glycerol, 1.7% SDS, 0.1 M DTT and 30 μM Bromphenol blue), denaturated at 95°C for 10 min and loaded onto a 15% SDS-polyacrylamide gel. […] The membrane was washed once more and the protein bands were detected using an ECL substrate (GE Healthcare, Buckinghamshire, United Kingdom). Using ImageJ, densitometry analysis was performed to quantify the intensities of the protein bands.

[3] = tested on: L. major dsRed in hMDM1; test: Parasite survival (dsRed MFI) in infected hMDM1 by flow cytometry; assay type: cell-based, Leishmania major; conditions: hMDM1 pretreated 24 h with 100 nM, infected with Lm dsRed MOI 10, flow cytometry, mean ± SD; control 1.00 ± 0.46
Protocol: as §1, with “h. For transgenic LmdsRed flow cytometry was used to analyze infection rates.” for “h.”
(§2) • FACS analysis of Leishmania parasites was performed as described Wenzel et al. ([61]). […] The cells were washed in FACS-Buffer and analyzed by flow cytometry. • To assess parasite survival, Leishmania (dsRed^+) infected hMDM were washed in FACS-buffer and infection rate (% of dsRed^+ hMDM) and the parasite load (mean fluorescent intensity) were assessed by flow cytometry. […] Data were analyzed by BD FACS Diva or FlowJo software (Treestar).

[4] = tested on: L. major dsRed in hMDM1; test: Infection rate (% dsRed+ hMDM1) by flow cytometry; assay type: cell-based, Leishmania major; conditions: hMDM1 pretreated 24 h with 100 nM, infected with Lm dsRed MOI 10, flow cytometry
Protocol: as §1, with “h. For transgenic LmdsRed flow cytometry was used to analyze infection rates.” for “h.”
as §2

[5] = tested on: L. aethiopica (Lae); test: DNA fragmentation (TUNEL) by flow cytometry, L. aethiopica; assay type: cell-based, Leishmania aethiopica
Protocol: (§3) L. major (Lm, MHOM_IL_81_FEBNI), L. aethiopica (Lae, MHOM/ET/72/L100 Z14), and the transgenic Lm dsRed (construct pSSUint-DsRed was a kind gift from Dr. Toni Aebischer, Robert Koch Institute, Berlin, Germany) and Lae dsRed promastigotes were cultured at 27°C in biphasic Novy-Nicolle-McNeal blood agar medium as described ([60]). Of note, all viable promastigotes express the transgenic dsRed protein. Upon transformation into the amastigote life stage, a 1 log-scale higher dsRed fluorescence is present, due to the high-level expression in the amastigote life stage ([31]). Logarithmic-phase or stationary-phase promastigotes were obtained after 2 (log-phase) or 7 (stat-phase) days of culture, respectively. Lm and Lae axenic amastigotes were generated by incubating log-phase promastigotes in pH 5.5 at 33°C and isolated using a discontinuous Histopaque® 1119 (Sigma Aldrich, Germany) density gradient as described ([61]).
(§4) To assess apoptosis, Lm and Lae promastigotes, which resided in a logarithmic growth phase, were treated with 30 and 60 ng/ml hrLL37 (PeptaNova GmbH, Sandhausen, Germany) for 72 h. […] Subsequently, DNA fragmentation was assessed by flow cytometry or immunofluorescence imaging using an in situ cell-death detection kit, based on terminal deoxynucleotidyl transferase dUTP nick end labeling (TUNEL), as described ([30]). Exposure of phosphatidylserine (PS) was assessed by AnnexinA5 binding using flow cytometry.
(§5) • FACS analysis of Leishmania parasites was performed as described Wenzel et al. ([61]). Apoptosis, among parasites, was assessed by staining with AnnexinA5-Alexa Fluor 647 using a Ca^2+ rich buffer. • For phenotyping hMDM by flow cytometry, hMDM were washed in FACS-Buffer (PBS supplemented with 1% FCS, 1% human serum and 1% BSA) and incubated with anti-CD14-FITC (1:100, IgG2b), anti-CD163-PE (1:50, IgG1, GHI/61), or anti-MHC II-PerCP (1:100, IgG2a, L243) for 30 min on ice in the dark. […] Upon analyzing, at least 10,000 events (human cells) or 20,000 (parasites) were recorded using a BD LSR II flow cytometer (BD Bioscience, Heidelberg, Germany). […]

[6] = tested on: Leishmania major (Lm); test: DNA fragmentation (TUNEL) by flow cytometry, L. major; assay type: cell-based; conditions: mean ± SD
Protocol: as §3, §4, §5

[7] = tested on: L. aethiopica (Lae); test: Phosphatidylserine exposure (AnnexinA5 binding) by flow cytometry, L. aethiopica; assay type: cell-based, Leishmania aethiopica; conditions: mean ± SD; for AnnexinA5-binding parasites: Lae log-phase promastigotes, 72 h, untreated 8.0 ± 4.5%
Protocol: as §3, §4, §5

[8] = tested on: Leishmania major (Lm); test: Phosphatidylserine exposure (AnnexinA5 binding) by flow cytometry, L. major; assay type: cell-based; conditions: mean ± SD; for AnnexinA5-binding parasites: Lm log-phase promastigotes, 72 h, untreated 14.7 ± 11.1%
Protocol: as §3, §4, §5

[9] = tested on: Leishmania promastigotes; test: Parasite morphology by microscopy after hrLL37 treatment; assay type: cell-based; conditions: microscopy (Figure 2C), as described for apoptotic parasites
Protocol: To assess apoptosis, Lm and Lae promastigotes, which resided in a logarithmic growth phase, were treated with 30 and 60 ng/ml hrLL37 (PeptaNova GmbH, Sandhausen, Germany) for 72 h. Leishmania axenic amastigotes were treated with 10 and 100 ng/ml hrLL37 or 25 μM staurosporine for 24 h. Subsequently, DNA fragmentation was assessed by flow cytometry or immunofluorescence imaging using an in situ cell-death detection kit, based on terminal deoxynucleotidyl transferase dUTP nick end labeling (TUNEL), as described ([30]). Exposure of phosphatidylserine (PS) was assessed by AnnexinA5 binding using flow cytometry.

[10] = higher of two hrLL37 concentrations (60 ng/ml per methods)
[11] = lower of two hrLL37 concentrations (30 ng/ml per methods)

Row | Compound | CAMP gene expression, fold increase [1] [fold] | cathelicidin protein expression, fold increase ([2]; late (6 d)) [fold] | L. major parasite survival (mean fluorescent intensity of dsRed, relative to control) [3] | percentage of hMDM1 infected cells (infection rate) [4] | cathelicidin protein expression, fold increase ([2]; early (24 h)) [fold] | TUNEL positivity ([5]; Lae axenic amastigotes, hrLL37 (10 and 100 ng/ml in methods, concentration of this value not stated), 24 h, mean ± SD, untreated 32.3 ± 13.3%) [%] | TUNEL positivity ([5]; Lae log-phase promastigotes, higher of two increasing hrLL37 concentrations (60 ng/ml per methods), 72 h, mean ± SD of at least 3 experiments, untreated 13.3 ± 1.2%) [%] | TUNEL positivity ([5]; Lae log-phase promastigotes, lower of two increasing hrLL37 concentrations (30 ng/ml per methods), 72 h, mean ± SD of at least 3 experiments, untreated 13.3 ± 1.2%) [%] | TUNEL positivity ([6]; Lm axenic amastigotes, rhLL37 (10 and 100 ng/ml in methods, concentration of this value not stated), 24 h, not significantly increased, untreated 12.0 ± 6.6%) [%] | TUNEL positivity ([6]; Lm log-phase promastigotes, higher of two increasing hrLL37 concentrations (60 ng/ml per methods), 72 h, untreated 6.24 ± 1.9%) [%] | TUNEL positivity ([6]; Lm log-phase promastigotes, lower of two increasing hrLL37 concentrations (30 ng/ml per methods), 72 h, untreated 6.24 ± 1.9%) [%] | AnnexinA5 binding ([7]; Lae axenic amastigotes, hrLL37 (10 and 100 ng/ml in methods, concentration of this value not stated), 24 h, untreated 18.7 ± 6.1%) [%] | AnnexinA5-binding parasites [7, 10] [%] | AnnexinA5-binding parasites [7, 11] [%] | AnnexinA5 binding ([8]; Lm axenic amastigotes, rhLL37 (10 and 100 ng/ml in methods, concentration of this value not stated), 24 h, minor but significant increase, untreated 3.3 ± 2.3%) [%] | AnnexinA5-binding parasites [8, 10] [%] | AnnexinA5-binding parasites [8, 11] [%] | Morphology of treated parasites [9]
1 | C=C1/C(=C\C=C2/CCC[C@]3(C)[C@@H]([C@H](C)/C=C/[C@@H](O)C4CC4)CC[C@@H]23)C[C@@H](O)C[C@@H]1O [CPT, calcipotriol] | 282 | 101.9 ± 125.4 | 0.74 ± 0.23 | did not change significantly |  |  |  |  |  |  |  |  |  |  |  |  |  | 
2 | C=C1/C(=C\C=C2/CCC[C@]3(C)[C@@H]([C@H](C)CCCC(C)(C)O)CC[C@@H]23)C[C@@H](O)C[C@@H]1O [CCT, 1α, 25-dihydroxyvitamin D3] | 587 ± 173 | 152.5 ± 149.6 | 0.60 ± 0.25 | did not change significantly | 25.5 ± 22.2 |  |  |  |  |  |  |  |  |  |  |  |  | 
3 | hrLL37: human recombinant LL37 (PeptaNova GmbH), the hCAP18-derived amphipathic α-helical antimicrobial peptide |  |  |  |  |  | 87.0 ± 6.1 | 21.1 ± 2.3 | 15.5 ± 8.3 | 12.1 ± 2.1 | 22.9 ± 3.1 | 20.2 ± 0.7 | 71.3 ± 12.6 | 31.3 ± 26 | 27.1 ± 14.3 | 8.3 ± 3.0 | 74.8 ± 23.2 | 51.5 ± 20.5 | round-shaped morphology

Reference: PMC6883804, “Cathelicidin Contributes to the Restriction of Leishmania in Human Host Macrophages” (Frontiers in Immunology, 2019)
